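Method: 48-hour compound exposure of cells in 96-well plates, five concentrations, linear interpolation of endpoints. At the TGI there is no net growth.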
Assays:
Test in all cases: growth of human tumour cells (NCI), 48 h
EKVX NSCLC = system: EKVX NSCLC
HCT-15 colon = system: HCT-15 colon
DU-145 prostate = system: DU-145 prostate
UACC-62 melanoma = system: UACC-62 melanoma
BT-549 breast = system: BT-549 breast
SK-MEL-5 melanoma = system: SK-MEL-5 melanoma
MDA-N = system: MDA-N
T-47D breast = system: T-47D breast
SK-MEL-28 melanoma = system: SK-MEL-28 melanoma
UO-31 renal = system: UO-31 renal
OVCAR-8 ovarian = system: OVCAR-8 ovarian
SK-OV-3 ovarian = system: SK-OV-3 ovarian
OVCAR-4 ovarian = system: OVCAR-4 ovarian
NCI-H522 lung = system: NCI-H522 lung
HCC-2998 colon = system: HCC-2998 colon
HOP-92 NSCLC = system: HOP-92 NSCLC
ACHN renal = system: ACHN renal
HL-60(TB) leukemia = system: HL-60(TB) leukemia
SNB-19 CNS = system: SNB-19 CNS
HS 578T breast = system: HS 578T breast
SF-539 CNS = system: SF-539 CNS
OVCAR-5 ovarian = system: OVCAR-5 ovarian
SN12C renal = system: SN12C renal
U251 CNS = system: U251 CNS
SK-MEL-2 melanoma = system: SK-MEL-2 melanoma
OVCAR-3 ovarian = system: OVCAR-3 ovarian
HT29 colon = system: HT29 colon
MCF7 breast = system: MCF7 breast
UACC-257 melanoma = system: UACC-257 melanoma
IGROV1 ovarian = system: IGROV1 ovarian
RPMI-8226 leukemia = system: RPMI-8226 leukemia
SR leukemia = system: SR leukemia
HCT-116 colon = system: HCT-116 colon
MDA-MB-435 = system: MDA-MB-435
NCI-H460 lung = system: NCI-H460 lung
K-562 leukemia = system: K-562 leukemia
NCI-H23 lung = system: NCI-H23 lung
KM12 colon = system: KM12 colon
CAKI-1 renal = system: CAKI-1 renal
TK-10 renal = system: TK-10 renal
PC-3 prostate = system: PC-3 prostate
NCI/ADR-RES ovarian = system: NCI/ADR-RES ovarian
COLO 205 colon = system: COLO 205 colon
HOP-62 NSCLC = system: HOP-62 NSCLC
MOLT-4 leukemia = system: MOLT-4 leukemia
CCRF-CEM leukemia = system: CCRF-CEM leukemia
A549 NSCLC = system: A549 NSCLC
SF-268 CNS = system: SF-268 CNS
MALME-3M melanoma = system: MALME-3M melanoma
A498 renal = system: A498 renal
786-0 renal = system: 786-0 renal
SW-620 colon = system: SW-620 colon
SF-295 CNS = system: SF-295 CNS
LOX IMVI melanoma = system: LOX IMVI melanoma
MDA-MB-231 breast = system: MDA-MB-231 breast
M14 melanoma = system: M14 melanoma
NCI-H226 lung = system: NCI-H226 lung
SNB-75 CNS = system: SNB-75 CNS
RXF 393 renal = system: RXF 393 renal

O=C1CSC(c2cccc(Cl)c2)N1c1ccc(-n2c(-c3ccccc3)nc3ccccc3c2=O)cc1 (stereo not given)
TGI (EKVX NSCLC): > 100 µM
TGI (HCT-15 colon): > 100 µM
TGI (DU-145 prostate): > 100 µM
TGI (UACC-62 melanoma): > 100 µM
TGI (BT-549 breast): > 100 µM
TGI (SK-MEL-5 melanoma): > 100 µM
TGI (MDA-N): > 100 µM
TGI (T-47D breast): > 100 µM
TGI (SK-MEL-28 melanoma): > 100 µM
TGI (UO-31 renal): 24.7 µM
TGI (OVCAR-8 ovarian): > 100 µM
TGI (SK-OV-3 ovarian): > 100 µM
TGI (OVCAR-4 ovarian): 62.9 µM
TGI (NCI-H522 lung): > 100 µM
TGI (HCC-2998 colon): > 100 µM
TGI (HOP-92 NSCLC): > 100 µM
TGI (ACHN renal): > 100 µM
TGI (HL-60(TB) leukemia): > 100 µM
TGI (SNB-19 CNS): > 100 µM
TGI (HS 578T breast): > 100 µM
TGI (SF-539 CNS): > 100 µM
TGI (OVCAR-5 ovarian): > 100 µM
TGI (SN12C renal): > 100 µM
TGI (U251 CNS): > 100 µM
TGI (SK-MEL-2 melanoma): > 100 µM
TGI (OVCAR-3 ovarian): > 100 µM
TGI (HT29 colon): > 100 µM
TGI (MCF7 breast): > 100 µM
TGI (UACC-257 melanoma): > 100 µM
TGI (IGROV1 ovarian): > 100 µM
TGI (RPMI-8226 leukemia): > 100 µM
TGI (SR leukemia): > 100 µM
TGI (HCT-116 colon): > 100 µM
TGI (MDA-MB-435): > 100 µM
TGI (NCI-H460 lung): > 100 µM
TGI (K-562 leukemia): > 100 µM
TGI (NCI-H23 lung): > 100 µM
TGI (KM12 colon): > 100 µM
TGI (CAKI-1 renal): > 100 µM
TGI (TK-10 renal): > 100 µM
TGI (PC-3 prostate): > 100 µM
TGI (NCI/ADR-RES ovarian): > 100 µM
TGI (COLO 205 colon): > 100 µM
TGI (HOP-62 NSCLC): > 100 µM
TGI (MOLT-4 leukemia): > 100 µM
TGI (CCRF-CEM leukemia): > 100 µM
TGI (A549 NSCLC): > 100 µM
TGI (SF-268 CNS): > 100 µM
TGI (MALME-3M melanoma): > 100 µM
TGI (A498 renal): > 100 µM
TGI (786-0 renal): > 100 µM
TGI (SW-620 colon): > 100 µM
TGI (SF-295 CNS): > 100 µM
TGI (LOX IMVI melanoma): > 100 µM
TGI (MDA-MB-231 breast): > 100 µM

Nc1nc2c(c(=O)[nH]1)CN(CCCN1CCOCC1)CN2
TGI (EKVX NSCLC): > 100 µM
TGI (HCT-15 colon): > 100 µM
TGI (DU-145 prostate): > 100 µM
TGI (UACC-62 melanoma): > 100 µM
TGI (BT-549 breast): > 100 µM
TGI (SK-MEL-5 melanoma): > 100 µM
TGI (MDA-N): > 100 µM
TGI (T-47D breast): > 100 µM
TGI (SK-MEL-28 melanoma): > 100 µM
TGI (M14 melanoma): > 100 µM
TGI (UO-31 renal): > 100 µM
TGI (OVCAR-8 ovarian): > 100 µM
TGI (OVCAR-4 ovarian): > 100 µM
TGI (NCI-H522 lung): > 100 µM
TGI (HCC-2998 colon): > 100 µM
TGI (HOP-92 NSCLC): > 100 µM
TGI (ACHN renal): > 100 µM
TGI (SNB-19 CNS): > 100 µM
TGI (HS 578T breast): > 100 µM
TGI (SF-539 CNS): > 100 µM
TGI (OVCAR-5 ovarian): > 100 µM
TGI (SN12C renal): > 100 µM
TGI (U251 CNS): > 100 µM
TGI (SK-MEL-2 melanoma): > 100 µM
TGI (OVCAR-3 ovarian): > 100 µM
TGI (HT29 colon): > 100 µM
TGI (MCF7 breast): > 100 µM
TGI (UACC-257 melanoma): > 100 µM
TGI (IGROV1 ovarian): > 100 µM
TGI (RPMI-8226 leukemia): > 100 µM
TGI (SR leukemia): > 100 µM
TGI (HCT-116 colon): > 100 µM
TGI (MDA-MB-435): > 100 µM
TGI (NCI-H460 lung): > 100 µM
TGI (K-562 leukemia): > 100 µM
TGI (NCI-H226 lung): > 100 µM
TGI (NCI-H23 lung): > 100 µM
TGI (KM12 colon): > 100 µM
TGI (CAKI-1 renal): > 100 µM
TGI (TK-10 renal): > 100 µM
TGI (PC-3 prostate): > 100 µM
TGI (NCI/ADR-RES ovarian): > 100 µM
TGI (COLO 205 colon): > 100 µM
TGI (HOP-62 NSCLC): > 100 µM
TGI (MOLT-4 leukemia): > 100 µM
TGI (A549 NSCLC): > 100 µM
TGI (SF-268 CNS): > 100 µM
TGI (MALME-3M melanoma): > 100 µM
TGI (A498 renal): > 100 µM
TGI (786-0 renal): > 100 µM
TGI (SW-620 colon): > 100 µM
TGI (SF-295 CNS): > 100 µM
TGI (LOX IMVI melanoma): > 100 µM
TGI (MDA-MB-231 breast): > 100 µM

O=C1NC(=O)C(c2c[nH]c3cc(Br)ccc23)=C1c1cnc[nH]1
TGI (EKVX NSCLC): > 100 µM
TGI (HCT-15 colon): > 100 µM
TGI (DU-145 prostate): > 100 µM
TGI (BT-549 breast): 75 µM
TGI (SK-MEL-5 melanoma): 25 µM
TGI (MDA-N): > 100 µM
TGI (T-47D breast): > 100 µM
TGI (SK-MEL-28 melanoma): > 100 µM
TGI (M14 melanoma): > 100 µM
TGI (UO-31 renal): > 100 µM
TGI (OVCAR-8 ovarian): > 100 µM
TGI (SK-OV-3 ovarian): > 100 µM
TGI (SNB-75 CNS): > 100 µM
TGI (OVCAR-4 ovarian): > 100 µM
TGI (NCI-H522 lung): 98.7 µM
TGI (HOP-92 NSCLC): > 100 µM
TGI (ACHN renal): > 100 µM
TGI (HL-60(TB) leukemia): 93.3 µM
TGI (SNB-19 CNS): > 100 µM
TGI (HS 578T breast): > 100 µM
TGI (SF-539 CNS): 72.6 µM
TGI (OVCAR-5 ovarian): > 100 µM
TGI (SN12C renal): > 100 µM
TGI (U251 CNS): > 100 µM
TGI (SK-MEL-2 melanoma): 79.3 µM
TGI (OVCAR-3 ovarian): 81.4 µM
TGI (HT29 colon): > 100 µM
TGI (MCF7 breast): > 100 µM
TGI (UACC-257 melanoma): 44.9 µM
TGI (RXF 393 renal): > 100 µM
TGI (IGROV1 ovarian): > 100 µM
TGI (RPMI-8226 leukemia): > 100 µM
TGI (SR leukemia): > 100 µM
TGI (HCT-116 colon): > 100 µM
TGI (MDA-MB-435): > 100 µM
TGI (NCI-H460 lung): > 100 µM
TGI (K-562 leukemia): > 100 µM
TGI (NCI-H226 lung): 7.87 µM
TGI (KM12 colon): > 100 µM
TGI (CAKI-1 renal): > 100 µM
TGI (TK-10 renal): > 100 µM
TGI (PC-3 prostate): > 100 µM
TGI (NCI/ADR-RES ovarian): > 100 µM
TGI (COLO 205 colon): 63.2 µM
TGI (HOP-62 NSCLC): > 100 µM
TGI (MOLT-4 leukemia): > 100 µM
TGI (CCRF-CEM leukemia): > 100 µM
TGI (A549 NSCLC): > 100 µM
TGI (SF-268 CNS): > 100 µM
TGI (MALME-3M melanoma): > 100 µM
TGI (A498 renal): 52.2 µM
TGI (786-0 renal): > 100 µM
TGI (SW-620 colon): > 100 µM
TGI (SF-295 CNS): > 100 µM
TGI (LOX IMVI melanoma): > 100 µM
TGI (MDA-MB-231 breast): > 100 µM

Source: PubChem BioAssay (NCI)
